Structures are written as SMILES.

The text below walks through data of publication PMC8284473, “Preliminary Characterization of NP339, a Novel Polyarginine Peptide with Broad Antifungal Activity” (Antimicrobial Agents and Chemotherapy, 2021).

In one data set the test system is human PBMCs. The data set can be described thus: NP339 cytotoxicity, LIVE/DEAD staining. The class given is cell-based. The settings on record: human PBMCs 5 × 10^5 cells/well, 2 h, 37°C, RPMI 1640; concentrations hundreds of folds above antifungal; n = 2. Here is the method: PBMCs were isolated from fresh human whole blood using Leucosep tubes (Greiner Bio-One), according to the manufacturer’s instructions. The cells were suspended in RPMI 1640 medium (5 × 10^6 cells/ml) and transferred to 96-well plate (5 × 10^5 cells/well). NP339 solutions were prepared in prewarmed RPMI 1640 medium and added to the cell suspension. The plates were incubated at 37°C under 5% CO2 for 2 h. Toxicity was determined using the Molecular Probes LIVE/DEAD Viability/Cytotoxicity kit (Fisher Scientific UK, Ltd.). As the kill control, 0.1% (vol/vol) Triton X-100 was used. Untreated cells were the live control.

For data set [1], the system named is A549 epithelial lung cell line. The data set can be described thus: NP339 cytotoxicity, LIVE/DEAD staining. Conditions: A549 monolayer, 3 h, 37°C, RPMI 1640; concentrations hundreds of folds above antifungal; n = 2. Type of data set: cell-based, human. The method, then: Lung epithelial cells (A549 cells; ATCC [distributed by LGC Promochem, Teddington, United Kingdom]) were cultured in a 96-well plate in Ham’s F-12K medium (Fisher Scientific UK, Ltd.) supplemented with 10% (vol/vol) fetal bovine serum. The cells were incubated under 5% CO2 at 37°C until 90% confluent. NP339 solutions and 0.25% SDS (the kill control) were prepared in prewarmed RPMI 1640 medium. Once the cells reached 90% confluence, the culture medium was removed from the 96-well plate, taking care not to disturb the cells, and 100 μl of NP339 solution was added to the cell monolayer. The plates were incubated at 37°C under 5% CO2 for 3 h. Toxicity was determined using the Molecular Probes LIVE/DEAD Viability/Cytotoxicity kit, as per the manufacturer’s instructions. As the kill control, 0.25% (wt/vol) SDS was used. Untreated cells were the live control (cells incubated with the medium).

A further data set relates to human whole blood. The settings on record: human whole blood exposed to the peptide; data not shown.
Data set [2] is described as follows: Tolerability in mouse models of infection. The class given is in vivo. The settings on record: at the therapeutic doses and duration of therapy used. Here is the method:
In all experiments, the animals were housed 4 or 5/cage in sterilized individual ventilated cages exposing the mice at all times to HEPA-filtered sterile air. Food and water were available ad libitum, and sterile aspen chip bedding was changed at least once weekly. The room temperature was 22 ± 1°C, with a relative humidity of 60% and maximum background noise of 56 dB. Mice were exposed to 12-h light/dark cycles. Before the experiments, the animals were randomly divided into groups. After the experiments, the animals were sacrificed by humane euthanasia by delivering 0.5 ml of 200 mg/ml pentobarbital solution via intraperitoneal injection. For quantification of fungal burden, samples were diluted appropriately and then quantitatively cultured on to SAB containing 0.05 mg/ml chloramphenicol and incubated at 37°C for 24 to 48 h before enumeration.
Male CD1 mice (n = 24 mice, 6 to 8 weeks of age, average weight of 23.5 g) were obtained from Charles River, Margate, United Kingdom. […] The mice were culled 29 h postinfection, and fungal kidney burdens were determined by plating as previously described.
Female BALB/c mice (n = 24 mice, 6 to 8 weeks of age, weight of 16 to 18 g) were obtained from Charles River, Margate, United Kingdom. […] At 3 days postinfection, fungal burdens in vaginal lavage samples were determined as described above. […]

On to `N=C(N)NCCC[C@H](NC(=O)[C@H](CCCNC(=N)N)NC(=O)[C@H](CCCNC(=N)N)NC(=O)[C@H](CCCNC(=N)N)NC(=O)[C@H](CCCNC(=N)N)NC(=O)[C@H](CCCNC(=N)N)NC(=O)[C@H](CCCNC(=N)N)NC(=O)[C@H](CCCNC(=N)N)NC(=O)[C@H](CCCNC(=N)N)NC(=O)[C@H](CCCNC(=N)N)NC(=O)[C@H](CCCNC(=N)N)NC(=O)[C@H](CCCNC(=N)N)NC(=O)[C@@H](N)CCCNC(=N)N)C(=O)O` [NP339], for which the “Cytotoxicity (live/dead cell ratio)” value (with human PBMCs; in data set [1]) was “not toxic” each time. Moreover, the “Nonspecific immune response (cytokine measurements)” value with human whole blood is “did not elicit a nonspecific immune response”. The Tolerability result in data set [2] is on record as “well tolerated”.
